Source: ChEMBL document CHEMBL5143515, “Identification of new halogen-containing 2,4-diphenyl indenopyridin-5-one derivative as a boosting agent for the anticancer responses of clinically available topoisomerase inhibitors” (Eur J Med Chem, 2022)
pIC50: −log10 of the molar value. Active and inactive are the calls of the source. The rule behind the calls is not given here.

Experiments:
[1] = molecular target: T1, DNA topoisomerase 1 (Homo sapiens) (UniProt P11387); assay: Inhibition of recombinant human topoisomerase 1 assessed as relaxation of supercoiled plasmid pBR322 DNA at 20 uM by agarose gel electrophoresis (reference value: 40.4%)
T1 sequence (whole entry): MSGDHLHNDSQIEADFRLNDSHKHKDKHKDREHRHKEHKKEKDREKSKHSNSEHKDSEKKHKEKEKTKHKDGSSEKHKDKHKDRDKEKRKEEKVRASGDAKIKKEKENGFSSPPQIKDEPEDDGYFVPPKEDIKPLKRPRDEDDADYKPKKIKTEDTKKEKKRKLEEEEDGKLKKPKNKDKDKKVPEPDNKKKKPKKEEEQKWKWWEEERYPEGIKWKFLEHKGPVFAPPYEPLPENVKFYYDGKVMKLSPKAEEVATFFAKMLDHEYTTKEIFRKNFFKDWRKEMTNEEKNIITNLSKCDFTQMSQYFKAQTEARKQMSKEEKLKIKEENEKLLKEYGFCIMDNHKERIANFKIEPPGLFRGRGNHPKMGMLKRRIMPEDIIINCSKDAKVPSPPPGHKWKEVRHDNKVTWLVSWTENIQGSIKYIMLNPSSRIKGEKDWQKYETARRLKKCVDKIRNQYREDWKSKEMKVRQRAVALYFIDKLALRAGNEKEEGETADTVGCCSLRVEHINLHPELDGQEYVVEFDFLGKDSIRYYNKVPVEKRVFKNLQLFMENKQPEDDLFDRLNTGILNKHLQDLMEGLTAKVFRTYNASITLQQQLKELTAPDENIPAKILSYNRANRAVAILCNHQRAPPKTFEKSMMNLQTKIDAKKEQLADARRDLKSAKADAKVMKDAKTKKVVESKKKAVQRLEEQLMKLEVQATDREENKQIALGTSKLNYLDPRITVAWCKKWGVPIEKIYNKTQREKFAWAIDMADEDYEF

[2] = molecular target: DNA topoisomerase 2-alpha (Homo sapiens) (UniProt P11388); assay: Inhibition of recombinant human topoisomerase 2alpha assessed as relaxation of supercoiled plasmid pBR322 DNA at 100 uM by agarose gel electrophoresis (reference value: 82.2%)
[3] = molecular target: DNA topoisomerase 2-alpha (Homo sapiens) (UniProt P11388); assay: Inhibition of recombinant human topoisomerase 2alpha assessed as relaxation of supercoiled plasmid pBR322 DNA at 20 uM by agarose gel electrophoresis (reference value: 48.4%)
[4] = tested on: DU-145; assay: Antiproliferative activity against human DU-145 cells after 72 hrs by EZ-Cytox colorimetric assay; type: functional, cell-based; settings: DU-145, 72 h
[5] = tested on: HeLa; assay: Antiproliferative activity against human HeLa cells after 72 hrs by EZ-Cytox colorimetric assay; type: functional, cell-based
[6] = tested on: T47D; assay: Antiproliferative activity against human T47D cells after 72 hrs by EZ-Cytox colorimetric assay; type: functional, cell-based
[7] = molecular target: T1, DNA topoisomerase 1 (Homo sapiens); assay: Catalytic inhibitor of non-intercalative topoisomerase 1 (unknown origin) assessed as binding to minor groove at 100 to 500 uM measured by cleavage complex assay; settings: dose 100-500 µM
[8] = molecular target: DNA topoisomerase 2-alpha (Homo sapiens) (UniProt P11388); assay: Catalytic inhibitor of non-intercalative topoisomerase 2alpha (unknown origin) assessed as binding to minor groove at 250 to 500 uM measured by cleavage complex assay; settings: dose 250-500 µM
[9] = Cytotoxicity against human MRC5 cells after 72 hrs by EZ-Cytox colorimetric assay; type: toxicity, cell-based
[10] = tested on: HCT-15; assay: Synergistic antiproliferative activity against human HCT-15 cells at 5 uM in presence of 1 nM camptothecin after 72 hrs by WST-1 assay; type: functional, cell-based
[11] = tested on: HCT-15; assay: Induction of apoptosis in human HCT-15 cells assessed as change in c-PARP level at 2 to 5 uM in presence of 1 nM camptothecin and measured by Western blot analysis; type: functional, cell-based; settings: dose 2-5 µM
[12] = tested on: HCT-15; assay: Induction of apoptosis in human HCT-15 cells assessed as change in c-caspase 7 level at 2 to 5 uM in presence of 1 nM camptothecin and measured by Western blot analysis; type: functional, cell-based; settings: dose 2-5 µM
[13] = tested on: HCT-15; assay: Induction of apoptosis in human HCT-15 cells assessed as change in c-PARP level at 2 to 5 uM in presence of 0.2 uM etoposide and measured by Western blot analysis; type: functional, cell-based; settings: dose 2-5 µM
[14] = tested on: HCT-15; assay: Induction of apoptosis in human HCT-15 cells assessed as change in c-caspase 7 level at 2 to 5 uM in presence of 0.2 uM etoposide and measured by Western blot analysis; type: functional, cell-based; settings: dose 2-5 µM
[15] = tested on: HCT-15; assay: Antitumor activity against human HCT-15 cells xenografted in female BALB/c nude mouse assessed as tumor growth retardation at 4 mg/kg, ip administered every day for 6 days in combination with etoposide at 2 mg/kg, ip administered every day for 6 days; type: functional, organism-based; settings: time 6.0 day
[16] = tested on: HCT-15; assay: Antitumor activity against human HCT-15 cells xenografted in female BALB/c nude mouse assessed as decrease in Ki67 expression at 4 mg/kg, ip administered every day for 6 days in combination with etoposide at 2 mg/kg, ip administered every day for 6 days measured by immunohistochemistry analysis; type: functional, organism-based; settings: time 6.0 day
[17] = Genotoxicity in human HCT-15 cells assessed as production of Ub1-gamma-H2AX at 2 to 5 uM and measured by western blot analysis; type: toxicity, cell-based; settings: hct-15, 5 µM, dose 2-5 µM
[18] = Genotoxicity in human HCT-15 cells assessed as production of fragmented DNA tails at 2 to 5 uM and measured by comet assay; type: toxicity, cell-based; settings: hct-15, 5 µM, dose 2-5 µM
[19] = Genotoxicity in human HCT-15 cells assessed as production of Ub1-gamma-H2AX at 2 to 5 uM and measured in presence of 1 nM camptothecin by western blot analysis; type: toxicity, cell-based; settings: hct-15, 5 µM, dose 2-5 µM
[20] = Genotoxicity in human HCT-15 cells assessed as production of Ub1-gamma-H2AX at 2 to 5 uM and measured in presence of 0.2 uM etoposide by western blot analysis; type: toxicity, cell-based; settings: hct-15, 5 µM, dose 2-5 µM
[21] = Genotoxicity in human HCT-15 cells assessed as production of gamma-H2AX at 2 to 5 uM and measured in presence of 0.2 uM etoposide by western blot analysis; type: toxicity, cell-based; settings: hct-15, 5 µM, dose 2-5 µM
[22] = Genotoxicity in human HCT-15 cells assessed as production of fragmented DNA tails at 2 to 5 uM and measured in presence of 1 nM camptothecin by comet assay; type: toxicity, cell-based; settings: hct-15, 5 µM, dose 2-5 µM
[23] = Toxicity in mouse assessed as reduction in number of white blood cells at 4 mg/kg in presence of 2 mg/kg etoposide; type: organism-based; settings: in vivo
[24] = Toxicity in mouse assessed as reduction in number of absolute neutrophil count at 4 mg/kg; type: organism-based; settings: in vivo
[25] = Toxicity in mouse assessed as increase in mean corpuscular volume of RBC at 4 mg/kg; type: organism-based, Erythrocyte; settings: in vivo
[26] = Toxicity in mouse assessed as increase in d red cell distribution width at 4 mg/kg; type: organism-based; settings: in vivo
[27] = Toxicity in mouse assessed as reduction in number of red blood cells at 4 mg/kg administered in combination with 2 mg/kg etoposide; type: organism-based; settings: in vivo
[28] = Toxicity in mouse assessed as reduction in hemoglobin level at 4 mg/kg administered in combination with 2 mg/kg etoposide; type: organism-based; settings: in vivo
[29] = Toxicity in mouse assessed as increase in mean corpuscular volume of RBC at 4 mg/kg administered in combination with 2 mg/kg etoposide; type: organism-based, Erythrocyte; settings: in vivo
[30] = Toxicity in mouse assessed as increase in d red cell distribution width at 4 mg/kg administered in combination with 2 mg/kg etoposide; type: organism-based; settings: in vivo

Chain of DNA topoisomerase 2-alpha (Homo sapiens) (P11388 whole entry): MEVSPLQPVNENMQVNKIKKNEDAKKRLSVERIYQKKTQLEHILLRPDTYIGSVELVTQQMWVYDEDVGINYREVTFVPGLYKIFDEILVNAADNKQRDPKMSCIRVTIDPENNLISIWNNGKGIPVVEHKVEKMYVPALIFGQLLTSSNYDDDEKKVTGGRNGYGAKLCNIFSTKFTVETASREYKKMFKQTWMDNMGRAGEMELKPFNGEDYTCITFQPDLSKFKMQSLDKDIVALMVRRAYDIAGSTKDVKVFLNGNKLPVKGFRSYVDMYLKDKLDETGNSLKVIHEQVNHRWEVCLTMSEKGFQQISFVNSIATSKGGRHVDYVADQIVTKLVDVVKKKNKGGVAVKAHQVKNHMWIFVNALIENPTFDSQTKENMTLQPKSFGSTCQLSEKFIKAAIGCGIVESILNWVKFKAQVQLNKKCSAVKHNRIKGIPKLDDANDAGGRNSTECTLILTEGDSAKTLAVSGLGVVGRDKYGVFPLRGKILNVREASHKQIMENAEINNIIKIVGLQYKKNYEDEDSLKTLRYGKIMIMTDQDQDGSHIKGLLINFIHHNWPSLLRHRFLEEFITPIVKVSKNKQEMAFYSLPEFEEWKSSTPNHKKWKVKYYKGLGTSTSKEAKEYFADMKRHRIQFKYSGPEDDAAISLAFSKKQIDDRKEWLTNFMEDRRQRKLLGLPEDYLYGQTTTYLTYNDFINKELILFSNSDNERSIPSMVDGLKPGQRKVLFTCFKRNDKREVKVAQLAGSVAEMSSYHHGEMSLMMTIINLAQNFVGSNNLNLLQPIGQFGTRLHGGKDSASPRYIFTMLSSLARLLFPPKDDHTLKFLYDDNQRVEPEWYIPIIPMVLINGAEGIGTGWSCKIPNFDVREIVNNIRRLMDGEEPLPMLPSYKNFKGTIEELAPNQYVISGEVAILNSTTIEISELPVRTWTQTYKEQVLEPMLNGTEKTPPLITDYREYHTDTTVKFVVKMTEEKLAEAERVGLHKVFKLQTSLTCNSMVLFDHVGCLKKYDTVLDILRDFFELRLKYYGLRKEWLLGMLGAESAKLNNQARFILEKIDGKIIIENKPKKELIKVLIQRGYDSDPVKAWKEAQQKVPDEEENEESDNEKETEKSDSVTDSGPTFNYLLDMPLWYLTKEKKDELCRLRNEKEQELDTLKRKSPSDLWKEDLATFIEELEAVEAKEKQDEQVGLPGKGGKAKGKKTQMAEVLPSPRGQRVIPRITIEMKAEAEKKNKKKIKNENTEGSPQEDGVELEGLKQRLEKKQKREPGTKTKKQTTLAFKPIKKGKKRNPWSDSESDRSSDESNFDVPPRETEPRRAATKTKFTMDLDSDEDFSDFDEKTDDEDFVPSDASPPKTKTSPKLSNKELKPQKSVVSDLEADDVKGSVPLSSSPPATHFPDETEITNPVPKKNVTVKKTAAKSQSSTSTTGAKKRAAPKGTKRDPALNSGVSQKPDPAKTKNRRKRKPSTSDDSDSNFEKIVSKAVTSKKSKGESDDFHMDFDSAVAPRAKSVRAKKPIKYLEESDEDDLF

O=C1c2ccccc2-c2nc(-c3ccc(Br)cc3)cc(-c3ccccc3)c21
inhibition [1]: 1.8%
inhibition [2]: 85.8%
inhibition [3]: 6.6%
pIC50 [4]: 5.32
pIC50 [5]: < 4.30
pIC50 [6]: 4.49
inhibition [7]: Active
inhibition [8]: Active
IC50 at 72 h [9]: > 10 µM
Activity [10]: Active
Activity [11]: Active
Activity [12]: Active
Activity [13]: Active
Activity [14]: Active
Activity [15]: Active
Activity [16]: Active
Activity [17]: Non-Toxic
Activity [18]: Non-Toxic
Activity [19]: Non-Toxic
Activity [20]: Non-Toxic
Activity [21]: Non-Toxic
Activity [22]: Non-Toxic
Activity [23]: Non-Toxic
Activity [24]: Non-Toxic
Activity [25]: Non-Toxic
Activity [26]: Non-Toxic
Activity [27]: Non-Toxic
Activity [28]: Non-Toxic
Activity [29]: Non-Toxic
Activity [30]: Non-Toxic
